The IC50 is the concentration needed to halve the response being measured. A high value points to weaker potency.

Molecules are shown by their SMILES. Entries after “also recorded” stand apart in the source; their conditions may differ.

In one assay the test system is HL-7702 cells. Kind of assay: Glycogenolysis inhibition assay in HL-7702 cells. The format is cell-based, human. The settings on record: for IC50: Homo sapiens, L02, 1 h, HL-7702 cells, 0.3 nM glucagon, 60 min, mean ± SD of three determinations. The protocol: To evaluate the effects of the synthesized compounds on glycogen degradation, compounds 8a–8i were subjected to a glycogenolysis assay in HL-7702 cells.
The inhibitory effect on hepatic glycogenolysis was quantitatively assessed by colorimetry using a microplate reader (Bio-Rad Laboratories) and anthrone reagent (Sigma-Aldrich, St. Louis, MO, USA), as previously described. Primary human liver HL-7702 cells (National Collection of Authenticated Cell Cultures) were treated with test compounds or DMSO solvent (final concentration, 0.10%) and then co-incubated with 0.3 nM glucagon for 60 min. After termination of the reaction by centrifugation, the cells were digested with 30% potassium hydroxide, and the glycogen content was determined. When culturing cells to concentration, a 6-well plate is used for cell culture, with a cell seeding density of 10^6 cells per well. The condition is set at a constant temperature of 37 degrees Celsius. The repetition count is three times. The activity assessment criteria were based on the positive drug psn-357 and the parent nuclear compound 5d. IC50 values were estimated by fitting the inhibition data to a logistic regression equation to generate dose–response curves. Analysis was conducted using SPSS Statistics 17.0. In vitro data are presented as mean ± SD, and in vivo data as mean ± SEM. Differences between two groups were assessed using Student’s t-test, and comparisons among three or more groups using ANOVA. A p-value < 0.05 was considered significant.

Assay [1] addresses T1, rabbit muscle glycogen phosphorylase a (RMGPa) (Oryctolagus cuniculus, UniProt P00489).
T1 sequence (P00489 2-843 limits assumed): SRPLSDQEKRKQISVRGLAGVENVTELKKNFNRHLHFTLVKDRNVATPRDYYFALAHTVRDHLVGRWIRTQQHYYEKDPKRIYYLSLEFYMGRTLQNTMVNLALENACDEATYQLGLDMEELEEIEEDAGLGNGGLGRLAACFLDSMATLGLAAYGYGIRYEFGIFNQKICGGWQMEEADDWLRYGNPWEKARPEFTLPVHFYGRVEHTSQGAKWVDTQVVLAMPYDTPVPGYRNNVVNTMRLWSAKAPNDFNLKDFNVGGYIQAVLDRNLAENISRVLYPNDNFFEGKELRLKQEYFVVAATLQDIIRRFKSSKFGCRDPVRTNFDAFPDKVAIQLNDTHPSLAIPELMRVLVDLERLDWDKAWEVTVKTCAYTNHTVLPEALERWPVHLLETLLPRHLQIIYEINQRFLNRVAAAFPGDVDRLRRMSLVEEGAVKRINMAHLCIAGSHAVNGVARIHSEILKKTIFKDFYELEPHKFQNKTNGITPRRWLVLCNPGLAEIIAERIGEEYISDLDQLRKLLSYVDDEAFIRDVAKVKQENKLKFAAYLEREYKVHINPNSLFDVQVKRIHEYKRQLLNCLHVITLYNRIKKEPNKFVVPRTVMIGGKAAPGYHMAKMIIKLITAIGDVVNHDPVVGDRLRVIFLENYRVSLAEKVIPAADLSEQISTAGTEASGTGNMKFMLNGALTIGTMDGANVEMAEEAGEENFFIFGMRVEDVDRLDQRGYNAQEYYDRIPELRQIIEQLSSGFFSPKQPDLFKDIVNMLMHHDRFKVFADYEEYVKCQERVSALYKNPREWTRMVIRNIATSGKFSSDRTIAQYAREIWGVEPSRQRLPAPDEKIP
Description: RMGPa inhibition assay (phosphate release from glucose-1-phosphate). In kind it is biochemical. The conditions noted are these: for IC50: mean ± SD of three determinations. The protocol:
The synthesized compounds were evaluated for their inhibitory activity against rabbit muscle glycogen phosphorylase a (RMGPa) according to a previously reported protocol. PSN-357, a compound in phase II clinical trials, was used as a positive control. We also used the parent structure 5d as a positive control (Figure 2).
The inhibitory activity of the test compounds against RMGPa was evaluated using a microplate reader (Bio-Rad Laboratories, Berkeley, CA, USA) according to a previously described method. Briefly, RMGPa activity was determined by measuring the release of phosphate from glucose-1-phosphate, which reflects the direction of glycogen synthesis. Each test compound was dissolved in DMSO and diluted to different concentrations for IC50 determination. The enzyme was added to 100 μL reaction mixtures in 96-well Costar microplates (Corning Inc., Corning, NY, USA) containing 50 mM HEPES (pH 7.2), 100 mM potassium chloride (KCl), 2.5 mM magnesium chloride (MgCl2), 0.5 mM glucose-1-phosphate, 1 mg/mL glycogen, and the test compounds. After incubation at 22 °C for 25 min, 150 μL of a solution containing 10 mg/mL ammonium molybdate and 0.38 mg/mL malachite green was added. The absorbance of phosphate was measured at 620 nm. IC50 values were estimated by fitting the inhibition data to a dose–response curve using a logistic regression equation.

Regarding `O=C(Nc1ccc2c(c1)C(=O)NC(OCc1ccccc1)CO2)c1cc2cc(Cl)ccc2[nH]1` (centres unmarked) [Compound 8g, N-(3-(benzyloxy)-5-oxo-2,3,4,5-tetrahydrobenzo[f][1,4]oxazepin-7-yl)-5-chloro-1H-indole-2-carboxamide], the IC50 came out at 1.51 ± 0.21 µM in the assay with HL-7702 cells and 0.62 ± 0.16 µM in assay [1]. Further, in the assay on HL-7702 cells (versus 5d), the “potency relative to parent structure 5d in HL-7702 cells” value is reported as “twice”. Moreover, the “potency relative to PSN-357 in HL-7702 cells (inhibition of glycogen degradation)” value with HL-7702 cells (versus PSN-357) is “threefold increase; also recorded: three times greater”.

As to `COC1COc2ccc(NC(=O)c3cc4cc(Cl)ccc4[nH]3)cc2C(=O)N1` (centres unmarked) [Compound 8a, 5-chloro-N-(3-methoxy-5-oxo-2,3,4,5-tetrahydrobenzo[f][1,4]oxazepin-7-yl)-1H-indole-2-carboxamide], the IC50 in the assay on HL-7702 cells is 8.51 ± 3.99 µM; in assay [1], 0.21 ± 0.05 µM. In addition, the “RMGPa inhibitory activity relative to PSN-357” value in assay [1] (versus PSN-357) was “twice as strong”.

In the case of `COCCOC1COc2ccc(NC(=O)c3cc4cc(Cl)ccc4[nH]3)cc2C(=O)N1` (centres unmarked) [Compound 8i, 5-chloro-N-[3-(2-methoxyethoxy)-5-oxo-2,3,4,5-tetrahydrobenzo[f][1,4]oxazepin-7-yl]-1H-indole-2-carboxamide], the IC50 with HL-7702 cells is more than 15.4 µM; in assay [1], 5.31 ± 0.62 µM.

As to `CCOC1COc2ccc(NC(=O)c3cc4cc(Cl)ccc4[nH]3)cc2C(=O)N1` (centres unmarked) [Compound 8b, 5-chloro-N-(3-ethoxy-5-oxo-2,3,4,5-tetrahydrobenzo[f][1,4]oxazepin-7-yl)-1H-indole-2-carboxamide], the IC50 in the assay on HL-7702 cells came to 6.77 ± 0.93 µM; in assay [1], 1.61 ± 0.41 µM.

Regarding `CCCOC1COc2ccc(NC(=O)c3cc4cc(Cl)ccc4[nH]3)cc2C(=O)N1` (centres unmarked) [Compound 8c, 5-chloro-N-(5-oxo-3-propoxy-2,3,4,5-tetrahydrobenzo[f][1,4]oxazepin-7-yl)-1H-indole-2-carboxamide], 5.33 ± 1.39 µM corresponded to half-maximal inhibition in the assay on HL-7702 cells (IC50).

In the assay with HL-7702 cells, `O=C(N[C@@H](Cc1ccc(F)cc1)C(=O)N1CCC(O)CC1)c1cc2cc(Cl)ncc2[nH]1` [PSN-357, reference compound] registered an IC50 of 4.94 ± 0.28 µM.

Take `CCCCCCOC1COc2ccc(NC(=O)c3cc4cc(Cl)ccc4[nH]3)cc2C(=O)N1` (centres unmarked) [Compound 8f, 5-chloro-N-(3-(hexyloxy)-5-oxo-2,3,4,5-tetrahydrobenzo[f][1,4]oxazepin-7-yl)-1H-indole-2-carboxamide]: the IC50 in the assay on HL-7702 cells was found to be 7.67 ± 1.98 µM; in assay [1], 0.29 ± 0.1 µM.

On to `O=C(Nc1ccc2c(c1)C(=O)NCCO2)c1cc2cc(Cl)ccc2[nH]1` [Compound 5d, reference compound], for which the IC50 worked out at 3.75 ± 2.67 µM with HL-7702 cells and 0.25 ± 0.05 µM in assay [1].

Turning to `CCCCCOC1COc2ccc(NC(=O)c3cc4cc(Cl)ccc4[nH]3)cc2C(=O)N1` (centres unmarked) [Compound 8e, 5-chloro-N-(5-oxo-3-(pentyloxy)-2,3,4,5-tetrahydrobenzo[f][1,4]oxazepin-7-yl)-1H-indole-2-carboxamide], the IC50 in the assay on HL-7702 cells is 15.4 ± 0.89 µM; in assay [1] it was 0.88 ± 0.03 µM.

In the case of `CCCCOC1COc2ccc(NC(=O)c3cc4cc(Cl)ccc4[nH]3)cc2C(=O)N1` (centres unmarked) [Compound 8d, N-(3-butoxy-5-oxo-2,3,4,5-tetrahydrobenzo[f][1,4]oxazepin-7-yl)-5-chloro-1H-indole-2-carboxamide], the 50% inhibitory concentration (IC50) with HL-7702 cells came to 9.81 ± 1.39 µM; in assay [1], 0.71 ± 0.25 µM.

Consider `CC(C)CCOC1COc2ccc(NC(=O)c3cc4cc(Cl)ccc4[nH]3)cc2C(=O)N1` (centres unmarked) [Compound 8h, 5-chloro-N-(3-(isopentyloxy)-5-oxo-2,3,4,5-tetrahydrobenzo[f][1,4]oxazepin-7-yl)-1H-indole-2-carboxamide], for which the IC50 with HL-7702 cells was 6.99 ± 0.99 µM; in assay [1], 0.7 ± 0.55 µM.

The values are drawn from publication PMC12608647, “Synthesis and Activity Evaluation of Novel Benzoxazepinone Derivatives as Potential Inhibitors of Glycogen Phosphorylase” (Molecules, 2025).
